Tests used:
human CRTH2 = target: T1, human CRTH2 (Homo sapiens, UniProt Q9Y5Y4); assay: Measurement of Ca2+ mobilization in the human CRTH2-transfected L1.2 cell line (Assay 1); type: cell-based; conditions: PGD2-induced Ca2+ mobilization in CRTH2-transfected L1.2 cells; compounds as yielded by solid phase synthesis, purity about 40 to 90%; read-out: Activity class
T1 construct: expressed in transfected cells; host or cells: L1.2 cells, pEAK expression vector, puromycin-selected
T1 sequence (Q9Y5Y4 1-395): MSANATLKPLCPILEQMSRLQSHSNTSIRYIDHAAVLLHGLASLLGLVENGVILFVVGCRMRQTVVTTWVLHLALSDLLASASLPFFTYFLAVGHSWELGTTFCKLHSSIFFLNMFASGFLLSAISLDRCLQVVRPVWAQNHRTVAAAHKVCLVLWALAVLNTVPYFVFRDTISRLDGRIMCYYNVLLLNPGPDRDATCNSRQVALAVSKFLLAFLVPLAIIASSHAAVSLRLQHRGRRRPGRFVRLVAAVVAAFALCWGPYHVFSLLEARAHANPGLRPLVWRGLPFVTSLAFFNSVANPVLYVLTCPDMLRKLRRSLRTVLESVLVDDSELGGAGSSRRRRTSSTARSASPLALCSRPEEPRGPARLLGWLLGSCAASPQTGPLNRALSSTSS
Protocol: Human CRTH2 cDNA was amplified from human eosinophil cDNA with gene specific primers containing restriction sites for cloning into pEAK vector (Edge Bio Systems). The human CRTH2 cDNA was cloned into the mammalian expression vector pEAK. This expression plasmid (40 μg) was transfected into L1.2 cells, at a cell density of 1×10^7 cells/500 μl, by using electroporation apparatus (Gene Pulser II, BioRad) at 250V/1,000 μF. One day after the transfection, puromycin (1 μg/ml, Sigma) was added into the cell culture plates. Two weeks after the transfection, grown cells were picked up for further growth.
[Measurement of Ca^2+ Mobilization in the Human CRTH2-Transfected L1.2 Cell Line] (Assay 1)
Ca^2+ loading buffer was prepared by mixing 5 μl of Fluo-3AM (2 mM in DMSO, final 1 μM, Molecular Probes) and 10 μl of pluronic F-127 (Molecular Probes) and diluting the resulting mixture in 10 ml of Ca^2+ assay buffer (20 mM HEPES pH 7.6, 0.1% BSA, 1 mM probenecid, Hanks' solution). The CRTH2 transfected cells which were prepared in Example 1 were washed with PBS, resuspended in Ca^2+ loading buffer at 1×10^7 cells/ml, and incubated for 60 min at room temperature. After incubation, cells were washed and resuspended in Ca^2+ assay buffer, then dispensed into transparent-bottom 96-well plates (#3631, Costar) at 2×10^5 cells/well. Cells were incubated with various concentrations of test compound for 5 minutes at room temperature. The emitted 480 nm fluorescence was measured on FDSS6000, a Ca^2+-measurement apparatus (Hamamatsu Photonics, Hamamatsu, Japan).
Assay results in Assay 1 are shown in Examples and tables of the Examples below. The data corresponds to the compounds as yielded by solid phase synthesis and thus to levels of purity of about 40 to 90%. For practical reasons, the compounds are grouped in four classes of activity as follows: IC50=A(< or =)10 nM<B(< or =)100 nM<C(< or =)500 nM<D

Structure (SMILES)	melting point	IC50 (human CRTH2)
CN(C)c1nc(Cc2ccc(NC(=O)c3ccc4ccccc4n3)cc2)nc(N2CCCC2)c1CC(=O)O [Example 7-9]	131 to 133 °C	100 to 500 nM
O=C(O)Cc1c(Cl)nc(Cc2ccc(NC(=O)c3ccc(Oc4ccccc4)cc3)cc2)nc1N1CCCC1 [Example 1-55]	160 °C	< 10 nM
CC(c1ccc(NC(=O)c2ccc3ccccc3n2)cc1)c1ncc(CC(=O)O)c(N(C)C)n1 (stereo not shown) [Example 2-24]	120 to 123 °C	10 to 100 nM
CN(C)c1nc(Cc2ccc(NC(=O)/C=C/c3ccc(Cl)cc3)cc2)nc(N2CCCC2)c1CC(=O)O [Example 7-10]	146 to 149 °C	< 10 nM
COCC(=O)Nc1ccc(Cc2ncc(CC(=O)O)c(N3CCCC3)n2)cc1 [Example 2-34]	102 to 105 °C	> 500 nM
CN(C)c1nc(Cc2ccc(NC(=O)c3ccc(F)cc3)cc2)nc(N2CCOCC2)c1CC(=O)O [Example 7-30]	197 to 198 °C	100 to 500 nM
COc1ccc(C(=O)Nc2ccc(Cc3ncc(CC(=O)O)c(N(C)C)n3)cc2)cc1OC [Example 2-12]	106 to 110 °C	100 to 500 nM
CC(c1ccc(NC(=O)c2ccc(Cl)c(Cl)c2)cc1)c1ncc(CC(=O)O)c(N(C)C)n1 (stereo not shown) [Example 2-21]	137 to 140 °C	< 10 nM
CN(C)c1nc(Cc2ccc(NC(=O)c3ccccc3Oc3ccccc3)cc2)nc(N2CCCC2)c1CC(=O)O [Example 7-22]	192 to 194 °C	> 500 nM
CC(c1ccc(NC(=O)c2ccc(F)cc2)cc1)c1ncc(CC(=O)O)c(N(C)C)n1 (stereo not shown) [Example 2-26]	114 to 117 °C	< 10 nM
COc1ccc(C(=O)Nc2ccc(Cc3nc(Cl)c(CC(=O)O)c(N(C)C)n3)cc2)cc1OC [Example 1-38]	> 95 °C	10 to 100 nM
CN(CC(=O)NC1CCCC1)c1nc(Cc2ccc(NC(=O)c3ccccc3)cc2)nc(Cl)c1CC(=O)O [Example 1-9]	> 140 °C	10 to 100 nM
CN(CC(=O)NC1CCCC1)c1nc(Cc2ccc(NC(=O)c3cccc4ccccc34)cc2)nc(Cl)c1CC(=O)O [Example 1-22]	136 °C	10 to 100 nM
CN(CC(=O)NC1CCCC1)c1nc(Cc2ccc(NC(=O)CC3Cc4ccccc4C3)cc2)nc(Cl)c1CC(=O)O [Example 1-28]	> 110 °C	< 10 nM
CC(C)(C)CC(=O)Nc1ccc(Cc2ncc(CC(=O)O)c(N3CCCC3)n2)cc1 [Example 2-35]	147 to 150 °C	10 to 100 nM
CN(C)c1nc(Cc2ccc(NC(=O)OCc3ccc(C(F)(F)F)cc3)cc2)ncc1CC(=O)O [Example 9-8]	91 to 93 °C	< 10 nM
CN(CC(=O)NC1CCCC1)c1nc(Cc2ccc(NC(=O)c3ccc4ccccc4c3)cc2)nc(Cl)c1CC(=O)O [Example 1-62]	> 176 °C	< 10 nM
CN(C)c1nc(Cc2ccc(NC(=O)c3cc(Cl)ccc3Cl)cc2)nc(Cl)c1CC(=O)O [Example 1-44]	96 °C	< 10 nM
CC(C)c1nc(Cc2ccc(NC(=O)c3ccc(C(F)(F)F)cc3)cc2)nc(N(C)C)c1CC(=O)O [Example 8-11]	145 to 148 °C	10 to 100 nM
CN(CCO)c1nc(Cc2ccc(NC(=O)c3ccc4ccccc4c3)cc2)nc(Cl)c1CC(=O)O [Example 1-66]	140 °C	< 10 nM
CN(CC(=O)NC1CCCCC1)c1nc(Cc2ccc(NC(=O)c3ccc4ccccc4c3)cc2)nc(Cl)c1CC(=O)O [Example 1-8]	134 °C	< 10 nM
O=C(O)Cc1c(Cl)nc(Cc2ccc(NC(=O)c3ccc(-n4cccc4)cc3)cc2)nc1N1CCCC1 [Example 1-57]	217 °C	< 10 nM
CCc1nc(Cc2ccc(NC(=O)OCc3ccccc3)cc2)nc(N(C)C)c1CC(=O)O [Example 9-6]	120 to 123 °C	> 500 nM

Structure (SMILES)	melting point	IC50 (human CRTH2)
O=C(O)Cc1c(Cl)nc(Cc2ccc(NC(=O)c3ccc(Cl)c(Cl)c3)cc2)nc1N1CCCC1 [Example 1-61]	129 °C	< 10 nM
CN(C)c1nc(Cc2ccc(NC(=O)c3ccc(Cl)c(Cl)c3)cc2)nc(N2CCOCC2)c1CC(=O)O [Example 7-19]	196 to 198 °C	10 to 100 nM
CN(C)c1nc(Cc2ccc(NC(=O)c3ccc4ccccc4c3)cc2)nc(Cl)c1CC(N)=O [Example 11, N-(4-{[5-(2-Amino-2-oxoethyl)-4-chloro-6-(dimethylamino)pyrimidin-2-yl]methyl}phenyl)-2-naphthamide]	189 to 190 °C	–
COc1c(C)cc(C(=O)Nc2ccc(Cc3nc(Cl)c(CC(=O)O)c(N4CCCC4)n3)cc2)cc1C [Example 1-59]	115 °C	< 10 nM
CN(C)c1nc(Cc2ccc(NC(=O)c3ccc(Cl)c(Cl)c3)cc2)ncc1CC(=O)O [Example 2-8]	140 °C	< 10 nM
CN(C)c1nc(Cc2ccc(NC(=O)c3ccc(Cl)c(Cl)c3)cc2)nc(Cl)c1CC(=O)O [Example 1-34]	> 168 °C	< 10 nM
Cc1ccc(C(=O)Nc2ccc(Cc3nc(Cl)c(CC(=O)O)c(N(C)CC(=O)NC4CCCC4)n3)cc2)cc1 [Example 1-21]	125 °C	< 10 nM
CN(C)c1nc(Cc2ccc(NC(=O)c3ccc(C(F)(F)F)cc3)cc2)ncc1CC(=O)O [Example 2-13]	149 to 153 °C	< 10 nM
CN(CC(=O)NC1CCCC1)c1nc(Cc2ccc(NC(=O)c3ccccn3)cc2)nc(Cl)c1CC(=O)O [Example 1-2]	> 135 °C	> 500 nM
COc1ccc(C(=O)Nc2ccc(Cc3ncc(CC(=O)O)c(N(C)C)n3)cc2)cc1 [Example 2-7]	111 °C	< 10 nM
CC(C)C(=O)Nc1ccc(Cc2nc(Cl)c(CC(=O)O)c(N(C)CC(=O)NC3CCCC3)n2)cc1 [Example 1-5]	> 142 °C	> 500 nM
Cc1ccc(CC(=O)Nc2ccc(Cc3nc(Cl)c(CC(=O)O)c(N(C)CC(=O)NC4CCCC4)n3)cc2)cc1 [Example 1-15]	> 116 °C	10 to 100 nM
CN(CC(=O)NC1CCCC1)c1nc(Cc2ccc(NC(=O)c3ccc4ccccc4n3)cc2)nc(Cl)c1CC(=O)O [Example 1-16]	137 °C	< 10 nM
CN(CC(=O)NC1CCCC1)c1nc(Cc2ccc(NC(=O)c3ccc(Cl)cc3)cc2)nc(Cl)c1CC(=O)O [Example 1-18]	143 °C	< 10 nM
CC(C)NC(=O)CN(C)c1nc(Cc2ccc(NC(=O)c3ccc4ccccc4c3)cc2)nc(Cl)c1CC(=O)O [Example 1-7]	181 °C	< 10 nM
CCCCCC(=O)Nc1ccc(Cc2nc(Cl)c(CC(=O)O)c(N(C)CC(=O)NC3CCCC3)n2)cc1 [Example 1-12]	> 100 °C	100 to 500 nM
CC(C)CC(=O)Nc1ccc(Cc2ncc(CC(=O)[O-])c(N3CCCC3)n2)cc1.[Na+] [Example 2-32]	148 to 150 °C	10 to 100 nM
CN(CC(=O)NC1CCCC1)c1nc(Cc2ccc(NCc3ccc4ccccc4c3)cc2)nc(Cl)c1CC(=O)O [Example 5-3]	> 96 °C	100 to 500 nM
O=C(O)Cc1cnc(Cc2ccc(NC(=O)c3ccc(C(F)(F)F)cc3)cc2)nc1N1CCCC1 [Example 2-30]	156 to 158 °C (dec.)	< 10 nM
CN(CC(=O)NC1CCCC1)c1nc(Cc2ccc(NC(=O)CCc3ccccc3)cc2)nc(Cl)c1CC(=O)O [Example 1-14]	> 139 °C	< 10 nM
CN(C)c1nc(Cc2ccc(NC(=O)/C=C/c3ccccc3)cc2)ncc1CC(=O)O [Example 2-10]	135 to 140 °C	< 10 nM
CN(C)c1nc(Cc2ccc(NC(=O)c3ccc4ccccc4c3)cc2)ncc1CC(=O)O [Example 2-1, {4-(Dimethylamino)-2-[4-(2-naphthoylamino)benzyl]pyrimidin-5-yl}acetic acid]	210 °C	–

— patent US7960393B2, “Pyrimidine derivatives useful for the treatment of diseases mediated by CRTH2” (Actimis Pharmaceuticals, Inc., priority 2002, dated 2011)
